# Measured values taken from paper PMC6986443, “T‐495, a novel low cooperative M1 receptor positive allosteric modulator, improves memory deficits associated with cholinergic dysfunction and is characterized by low gastrointestinal side effect risk” (Pharmacology Research & Perspectives, 2020).
# Legend:
# Experiment in all cases: Selectivity panel
# Format in all cases: binding
# [1] = target: T1, Angiotensin AT2 (Homo sapiens, UniProt P50052)
# T1 construct: purchased Eurofins Panlabs Taiwan Ltd
# From the text: (§1) The selectivity of T‐495 at 10 μmol/L against a panel of 106 targets, including receptors, enzymes, ion channels, and transporters, was characterized (Eurofins Panlabs Taiwan Ltd., Taipei, Taiwan).
# [2] = test system: Adrenergic α2, non-selective
# From the text: as §1
# [3] = test system: Potassium channel (SKCA)
# From the text: as §1
# [4] = target: T2, Progesterone PR-B (Homo sapiens, UniProt P06401)
# T2 construct: purchased Eurofins Panlabs Taiwan Ltd
# T2 sequence (P06401 whole entry): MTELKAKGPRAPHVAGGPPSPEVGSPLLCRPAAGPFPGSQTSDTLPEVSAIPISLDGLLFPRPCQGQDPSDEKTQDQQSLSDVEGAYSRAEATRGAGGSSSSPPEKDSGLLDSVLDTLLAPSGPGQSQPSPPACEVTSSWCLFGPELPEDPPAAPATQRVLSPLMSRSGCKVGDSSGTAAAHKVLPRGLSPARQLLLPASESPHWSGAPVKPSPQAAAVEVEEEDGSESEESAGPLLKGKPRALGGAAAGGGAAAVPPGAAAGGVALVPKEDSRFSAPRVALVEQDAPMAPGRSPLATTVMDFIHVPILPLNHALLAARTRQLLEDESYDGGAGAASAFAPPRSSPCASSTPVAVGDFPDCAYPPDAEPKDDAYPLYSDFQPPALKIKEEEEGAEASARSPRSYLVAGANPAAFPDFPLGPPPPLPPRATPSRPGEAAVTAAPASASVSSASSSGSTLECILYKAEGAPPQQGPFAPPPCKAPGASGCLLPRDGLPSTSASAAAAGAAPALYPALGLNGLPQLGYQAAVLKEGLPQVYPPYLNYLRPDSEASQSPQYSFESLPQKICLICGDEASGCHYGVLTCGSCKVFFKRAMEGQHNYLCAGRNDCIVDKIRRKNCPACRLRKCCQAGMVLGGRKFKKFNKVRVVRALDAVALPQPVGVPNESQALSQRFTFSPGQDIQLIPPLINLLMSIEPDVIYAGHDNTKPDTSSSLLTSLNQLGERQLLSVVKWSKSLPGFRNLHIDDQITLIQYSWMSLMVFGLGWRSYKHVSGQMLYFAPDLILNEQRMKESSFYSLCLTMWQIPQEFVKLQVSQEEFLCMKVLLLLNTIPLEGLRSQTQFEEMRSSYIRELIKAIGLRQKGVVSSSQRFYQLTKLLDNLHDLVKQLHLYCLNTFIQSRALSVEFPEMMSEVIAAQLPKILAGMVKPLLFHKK
# From the text: as §1
# [5] = test system: Glutamate, kainate
# From the text: as §1
# [6] = target: T3, Histamine H2 (Homo sapiens, UniProt P25021)
# T3 construct: purchased Eurofins Panlabs Taiwan Ltd
# T3 sequence (P25021 whole entry): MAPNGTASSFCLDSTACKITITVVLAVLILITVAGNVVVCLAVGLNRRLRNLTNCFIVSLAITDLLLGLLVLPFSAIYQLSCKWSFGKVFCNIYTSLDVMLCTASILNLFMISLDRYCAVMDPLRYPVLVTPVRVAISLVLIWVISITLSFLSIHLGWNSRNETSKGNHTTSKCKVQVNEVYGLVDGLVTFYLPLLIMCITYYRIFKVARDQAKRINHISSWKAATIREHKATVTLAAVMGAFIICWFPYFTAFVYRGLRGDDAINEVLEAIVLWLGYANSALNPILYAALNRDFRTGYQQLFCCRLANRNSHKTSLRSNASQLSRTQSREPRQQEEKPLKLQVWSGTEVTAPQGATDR
# From the text: as §1
# [7] = target: T4, Glucocorticoid (Homo sapiens, UniProt P04150)
# T4 construct: purchased Eurofins Panlabs Taiwan Ltd
# From the text: as §1
# [8] = target: T5, Adenosine A2A (Homo sapiens, UniProt P29274)
# T5 construct: purchased Eurofins Panlabs Taiwan Ltd
# From the text: as §1
# [9] = target: T6, Histamine H1 (Homo sapiens, UniProt P35367)
# T6 construct: purchased Eurofins Panlabs Taiwan Ltd
# From the text: as §1
# [10] = test system: Sigma, non-selective
# From the text: as §1
# [11] = target: T7, Vasopressin V2 (Homo sapiens, UniProt P30518)
# T7 construct: purchased Eurofins Panlabs Taiwan Ltd
# From the text: as §1
# [12] = test system: GABAA, muscimol, central
# From the text: as §1
# [13] = test system: Androgen (testosterone)
# From the text: as §1
# [14] = target: T8, Adrenergic β1 (Homo sapiens, UniProt P08588)
# T8 construct: purchased Eurofins Panlabs Taiwan Ltd
# From the text: as §1
# [15] = target: T9, Adenosine A1 (Homo sapiens, UniProt P30542)
# T9 construct: purchased Eurofins Panlabs Taiwan Ltd
# From the text: as §1
# [16] = test system: Potassium channel (KATP)
# From the text: as §1
# [17] = target: T10, Adrenergic β3 (Homo sapiens, UniProt P13945)
# T10 construct: purchased Eurofins Panlabs Taiwan Ltd
# From the text: as §1
# [18] = test system: Dopamine D4.2
# From the text: as §1
# [19] = target: T11, Cholecystokinin CCK2 (CCKB) (Homo sapiens, UniProt P32239)
# T11 construct: purchased Eurofins Panlabs Taiwan Ltd
# From the text: as §1
# [20] = target: T12, Transporter, norepinephrine (NET) (Homo sapiens, UniProt P23975)
# T12 construct: purchased Eurofins Panlabs Taiwan Ltd
# From the text: as §1
# [21] = target: T13, Serotonin 5-HT2A (Homo sapiens, UniProt P28223)
# T13 construct: purchased Eurofins Panlabs Taiwan Ltd
# From the text: as §1
# [22] = target: T14, Opiate κ (OP2, KOP) (Homo sapiens, UniProt P41145)
# T14 construct: purchased Eurofins Panlabs Taiwan Ltd
# From the text: as §1
# [23] = test system: GABAA, chloride channel
# From the text: as §1
# [24] = target: T15, Dopamine D2S (Homo sapiens, UniProt P14416)
# T15 construct: purchased Eurofins Panlabs Taiwan Ltd
# From the text: as §1
# [25] = target: T16, Bradykinin B2 (Homo sapiens, UniProt P30411)
# T16 construct: purchased Eurofins Panlabs Taiwan Ltd
# From the text: as §1
# [26] = target: T17, IP (PGI2) (Homo sapiens, UniProt P43119)
# T17 construct: purchased Eurofins Panlabs Taiwan Ltd
# T17 sequence (P43119 whole entry): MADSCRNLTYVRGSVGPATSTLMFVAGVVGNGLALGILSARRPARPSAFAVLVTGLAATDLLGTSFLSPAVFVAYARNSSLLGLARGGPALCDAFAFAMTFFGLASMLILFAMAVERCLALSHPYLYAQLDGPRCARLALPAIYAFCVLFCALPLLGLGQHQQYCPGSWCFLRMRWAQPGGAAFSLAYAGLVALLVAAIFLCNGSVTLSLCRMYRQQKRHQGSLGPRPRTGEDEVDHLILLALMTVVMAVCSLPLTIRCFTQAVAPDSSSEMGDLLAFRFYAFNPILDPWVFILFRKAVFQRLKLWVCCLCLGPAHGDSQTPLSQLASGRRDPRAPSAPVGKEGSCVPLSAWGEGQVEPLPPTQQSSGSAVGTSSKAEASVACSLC
# From the text: as §1
# [27] = target: T18, GABAB1A (Homo sapiens, UniProt Q9UBS5)
# T18 construct: purchased Eurofins Panlabs Taiwan Ltd
# T18 sequence (Q9UBS5 15-961 limits assumed): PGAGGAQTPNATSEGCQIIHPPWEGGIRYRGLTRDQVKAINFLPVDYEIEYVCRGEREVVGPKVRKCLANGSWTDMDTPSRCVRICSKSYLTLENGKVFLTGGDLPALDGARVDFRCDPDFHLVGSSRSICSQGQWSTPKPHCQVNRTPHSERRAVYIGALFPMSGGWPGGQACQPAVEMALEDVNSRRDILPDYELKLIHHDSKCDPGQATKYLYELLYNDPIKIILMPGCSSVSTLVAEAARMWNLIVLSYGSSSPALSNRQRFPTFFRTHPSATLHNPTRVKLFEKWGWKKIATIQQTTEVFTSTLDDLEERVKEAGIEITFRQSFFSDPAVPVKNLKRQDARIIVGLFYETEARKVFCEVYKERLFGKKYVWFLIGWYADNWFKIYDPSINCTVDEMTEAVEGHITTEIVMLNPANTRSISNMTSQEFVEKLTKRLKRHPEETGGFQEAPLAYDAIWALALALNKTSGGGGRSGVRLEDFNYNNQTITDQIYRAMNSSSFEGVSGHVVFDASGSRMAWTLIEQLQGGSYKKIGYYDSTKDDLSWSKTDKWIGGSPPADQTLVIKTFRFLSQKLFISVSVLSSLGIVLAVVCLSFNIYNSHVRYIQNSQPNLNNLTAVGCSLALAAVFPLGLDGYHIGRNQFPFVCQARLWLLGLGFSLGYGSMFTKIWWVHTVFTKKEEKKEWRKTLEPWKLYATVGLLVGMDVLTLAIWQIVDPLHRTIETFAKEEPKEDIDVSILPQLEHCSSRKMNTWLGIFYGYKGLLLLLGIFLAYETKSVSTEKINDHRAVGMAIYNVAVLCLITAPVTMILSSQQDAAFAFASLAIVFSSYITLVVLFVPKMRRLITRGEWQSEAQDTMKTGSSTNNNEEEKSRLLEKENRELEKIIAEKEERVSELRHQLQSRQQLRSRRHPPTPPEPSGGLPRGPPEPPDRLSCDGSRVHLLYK
# T18 sequence (O75899 42-941 partner): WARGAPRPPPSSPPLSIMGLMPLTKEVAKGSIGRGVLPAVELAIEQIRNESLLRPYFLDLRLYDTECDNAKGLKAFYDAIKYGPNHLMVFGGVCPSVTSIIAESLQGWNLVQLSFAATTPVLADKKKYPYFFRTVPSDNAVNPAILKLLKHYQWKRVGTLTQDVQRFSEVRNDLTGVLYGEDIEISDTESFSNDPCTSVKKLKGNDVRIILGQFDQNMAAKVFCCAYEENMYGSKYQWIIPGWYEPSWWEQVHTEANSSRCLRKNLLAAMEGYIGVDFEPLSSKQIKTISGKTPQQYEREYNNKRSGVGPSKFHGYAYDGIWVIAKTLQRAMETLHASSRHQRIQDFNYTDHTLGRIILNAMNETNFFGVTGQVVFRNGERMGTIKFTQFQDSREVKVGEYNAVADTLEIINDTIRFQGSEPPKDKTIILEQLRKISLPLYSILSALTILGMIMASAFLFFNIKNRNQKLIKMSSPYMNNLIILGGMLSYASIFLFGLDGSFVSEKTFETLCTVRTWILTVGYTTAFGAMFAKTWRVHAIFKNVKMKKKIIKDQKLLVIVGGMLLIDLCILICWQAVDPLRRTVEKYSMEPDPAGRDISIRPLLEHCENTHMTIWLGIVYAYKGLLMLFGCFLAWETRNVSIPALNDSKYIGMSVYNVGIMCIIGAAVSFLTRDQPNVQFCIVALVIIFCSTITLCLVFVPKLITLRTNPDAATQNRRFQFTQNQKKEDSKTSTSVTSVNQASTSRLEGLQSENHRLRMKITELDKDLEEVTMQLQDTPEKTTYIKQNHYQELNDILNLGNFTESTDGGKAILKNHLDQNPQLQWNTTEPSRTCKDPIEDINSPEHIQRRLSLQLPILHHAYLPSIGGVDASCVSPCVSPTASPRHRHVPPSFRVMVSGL
# From the text: as §1
# [28] = target: T19, Dopamine D2L (Homo sapiens, UniProt P14416)
# T19 construct: purchased Eurofins Panlabs Taiwan Ltd
# T19 sequence (P14416 whole entry): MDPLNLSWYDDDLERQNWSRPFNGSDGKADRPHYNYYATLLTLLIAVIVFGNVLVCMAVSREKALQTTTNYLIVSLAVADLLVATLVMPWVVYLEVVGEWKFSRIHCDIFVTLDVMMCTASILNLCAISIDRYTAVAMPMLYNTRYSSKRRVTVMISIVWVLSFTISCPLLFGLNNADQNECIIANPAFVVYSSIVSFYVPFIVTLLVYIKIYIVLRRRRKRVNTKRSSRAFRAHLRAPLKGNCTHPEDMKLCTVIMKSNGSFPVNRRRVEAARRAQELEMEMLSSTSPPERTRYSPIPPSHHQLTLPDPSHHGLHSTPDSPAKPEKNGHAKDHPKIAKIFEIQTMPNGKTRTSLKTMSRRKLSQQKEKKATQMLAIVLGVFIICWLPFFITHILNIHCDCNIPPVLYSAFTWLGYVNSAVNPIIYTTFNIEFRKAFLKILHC
# From the text: as §1
# [29] = test system: Glutamate, NMDA, phencyclidine
# From the text: as §1
# [30] = test system: Calcium channel L-type, benzothiazepine
# From the text: as §1
# [31] = test system: Estrogen Receptor (non-selective)
# From the text: as §1
# [32] = target: T20, Serotonin 5-HT2C (Homo sapiens, UniProt P28335)
# T20 construct: purchased Eurofins Panlabs Taiwan Ltd
# From the text: as §1
# [33] = target: T21, Serotonin 5-HT3 (Homo sapiens, UniProt P46098)
# T21 construct: purchased Eurofins Panlabs Taiwan Ltd
# From the text: as §1
# [34] = target: T22, GABAB1B (Homo sapiens, UniProt Q9UBS5)
# T22 construct: purchased Eurofins Panlabs Taiwan Ltd
# From the text: as §1
# [35] = target: T23, Growth hormone secretagogue (ghrelin) (Homo sapiens, UniProt Q92847)
# T23 construct: purchased Eurofins Panlabs Taiwan Ltd
# From the text: as §1
# [36] = test system: Transporter, GABA
# From the text: as §1
# [37] = target: T24, Cannabinoid CB2 (Homo sapiens, UniProt P34972)
# T24 construct: purchased Eurofins Panlabs Taiwan Ltd
# T24 sequence (P34972 whole entry): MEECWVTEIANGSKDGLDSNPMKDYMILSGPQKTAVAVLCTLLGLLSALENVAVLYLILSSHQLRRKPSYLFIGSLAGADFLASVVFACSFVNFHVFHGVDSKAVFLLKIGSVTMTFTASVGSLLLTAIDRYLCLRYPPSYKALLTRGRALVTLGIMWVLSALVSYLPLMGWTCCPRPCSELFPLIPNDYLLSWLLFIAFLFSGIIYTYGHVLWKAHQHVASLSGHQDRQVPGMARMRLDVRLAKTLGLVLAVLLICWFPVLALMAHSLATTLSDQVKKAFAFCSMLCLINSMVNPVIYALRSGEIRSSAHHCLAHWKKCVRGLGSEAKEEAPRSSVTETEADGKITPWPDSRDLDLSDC
# From the text: as §1
# [38] = test system: Glutamate, NMDA, glycine
# From the text: as §1
# [39] = target: T25, Endothelin ETA (Homo sapiens, UniProt P25101)
# T25 construct: purchased Eurofins Panlabs Taiwan Ltd
# From the text: as §1
# [40] = target: T26, Dopamine D1 (Homo sapiens, UniProt P21728)
# T26 construct: purchased Eurofins Panlabs Taiwan Ltd
# From the text: as §1
# [41] = target: T27, Dopamine D3 (Homo sapiens, UniProt P35462)
# T27 construct: purchased Eurofins Panlabs Taiwan Ltd
# From the text: as §1
# [42] = test system: Glutamate, AMPA
# From the text: as §1
# [43] = target: T28, Transporter, serotonin (SERT) (Homo sapiens, UniProt P31645)
# T28 construct: purchased Eurofins Panlabs Taiwan Ltd
# T28 sequence (P31645 whole entry): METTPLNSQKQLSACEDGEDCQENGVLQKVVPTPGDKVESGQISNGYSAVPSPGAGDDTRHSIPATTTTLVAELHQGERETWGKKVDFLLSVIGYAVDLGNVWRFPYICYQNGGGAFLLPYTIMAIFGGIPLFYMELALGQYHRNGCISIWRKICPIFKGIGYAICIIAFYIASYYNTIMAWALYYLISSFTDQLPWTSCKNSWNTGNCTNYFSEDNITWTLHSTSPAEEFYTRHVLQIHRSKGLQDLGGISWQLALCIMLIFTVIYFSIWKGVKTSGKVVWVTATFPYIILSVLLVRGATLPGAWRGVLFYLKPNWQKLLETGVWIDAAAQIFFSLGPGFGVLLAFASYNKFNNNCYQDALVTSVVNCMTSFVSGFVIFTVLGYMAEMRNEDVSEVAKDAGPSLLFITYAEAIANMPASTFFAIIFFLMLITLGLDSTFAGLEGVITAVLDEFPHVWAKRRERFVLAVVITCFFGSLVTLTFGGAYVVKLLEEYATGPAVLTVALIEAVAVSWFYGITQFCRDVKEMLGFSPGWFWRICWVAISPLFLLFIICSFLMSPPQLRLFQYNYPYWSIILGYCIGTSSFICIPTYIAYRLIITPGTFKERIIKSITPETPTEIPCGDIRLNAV
# From the text: as §1
# [44] = target: T29, Muscarinic M1 (Homo sapiens, UniProt P11229)
# T29 construct: purchased Eurofins Panlabs Taiwan Ltd
# From the text: as §1
# [45] = test system: Adrenergic α1, non-selective
# From the text: as §1
# [46] = target: T30, Vasopressin V1A (Homo sapiens, UniProt P37288)
# T30 construct: purchased Eurofins Panlabs Taiwan Ltd
# From the text: as §1
smiles,measurement,setting,value
"Cc1c(Cc2ccc(Cl)nc2)cc2c(c1Cl)OCN([C@H]1CCC[C@@H]1O)C2=O [T‐495, 8‐chloro‐6‐((6‐chloropyridin‐3‐yl)methyl)‐3‐((1S,2S)‐2‐hydroxycyclopentyl)‐7‐methyl‐2,3‐dihydro‐4H‐1,3‐benzoxazin‐4‐one]",inhibition at 10 µM,[1],0%
same,% inhibition at 10 μM,[2],26%
same,% inhibition at 10 μM,[3],1%
same,inhibition at 10 µM,[4],21%
same,% inhibition at 10 μM,[5],13%
same,inhibition at 10 µM,[6],22%
same,inhibition at 10 µM,[7],25%
same,inhibition at 10 µM,[8],-4%
same,inhibition at 10 µM,[9],2%
same,% inhibition at 10 μM,[10],25%
same,inhibition at 10 µM,[11],-7%
same,% inhibition at 10 μM,[12],-1%
same,% inhibition at 10 μM,[13],3%
same,inhibition at 10 µM,[14],4%
same,inhibition at 10 µM,[15],15%
same,% inhibition at 10 μM,[16],2%
same,inhibition at 10 µM,[17],7%
same,% inhibition at 10 μM,[18],3%
same,inhibition at 10 µM,[19],10%
same,inhibition at 10 µM,[20],17%
same,inhibition at 10 µM,[21],20%
same,inhibition at 10 µM,[22],14%
same,% inhibition at 10 μM,[23],45%
same,inhibition at 10 µM,[24],15%
same,inhibition at 10 µM,[25],-4%
same,inhibition at 10 µM,[26],16%
same,inhibition at 10 µM,[27],5%
same,inhibition at 10 µM,[28],4%
same,% inhibition at 10 μM,[29],3%
same,% inhibition at 10 μM,[30],-5%
same,% inhibition at 10 μM,[31],5%
same,inhibition at 10 µM,[32],10%
same,inhibition at 10 µM,[33],-3%
same,inhibition at 10 µM,[34],6%
same,inhibition at 10 µM,[35],8%
same,% inhibition at 10 μM,[36],-7%
same,inhibition at 10 µM,[37],12%
same,% inhibition at 10 μM,[38],15%
same,inhibition at 10 µM,[39],-4%
same,inhibition at 10 µM,[40],-7%
same,inhibition at 10 µM,[41],-3%
same,% inhibition at 10 μM,[42],20%
same,inhibition at 10 µM,[43],17%
same,inhibition at 10 µM,[44],15%
same,% inhibition at 10 μM,[45],11%
same,inhibition at 10 µM,[46],7%
